Test results published in ChEMBL document CHEMBL1157092, “Jacaranone-derived glucosidic esters from Jacaranda glabra and their activity against Plasmodium falciparum” (J Nat Prod, 2010).
Converted amounts (≈) assume the structure as drawn.

Key:
Plasmodium falciparum = experiment: Antiplasmodial activity against chloroquine and pyrimethamine-resistant Plasmodium falciparum K1 infected in human erythrocytes after 48 hrs by [3]H-hypoxanthine incorporation assay; format: functional, organism-based; conditions: K1, 48 h
L6 = experiment: Cytotoxicity against rat L6 cells after 72 hrs by alamar blue assay; format: cell-based; conditions: L6, 72 h

| SMILES | IC50 (Plasmodium falciparum) [µg/mL] | IC50 (L6) [µg/mL] |
| --- | --- | --- |
| O=C1C=CC(O)(CC(=O)OC[C@H]2O[C@@H](OC(=O)CC3(O)C=CC(=O)C=C3)[C@H](OC(=O)Cc3ccccc3)[C@@H](OC(=O)Cc3ccc(O)cc3)[C@@H]2O)C=C1 [JACAGLABROSIDE D] | 0.55 (≈ 0.751 µM) | 84.8 (≈ 116 µM) |
| COC(=O)CC1(O)C=CC(=O)C=C1 [JACARANONE] | 1.32 (≈ 7.25 µM) | 1.06 (≈ 5.82 µM) |
| O=C(O)Cc1ccccc1 [PHENYLACETIC ACID] | > 5 | > 90 |
| O=C1C=CC(O)(CC(=O)OC[C@H]2O[C@@H](OC(=O)CC3(O)C=CC(=O)C=C3)[C@H](OC(=O)Cc3ccc(O)cc3)[C@@H](OC(=O)Cc3ccccc3)[C@@H]2O)C=C1 [JACAGLABROSIDE C] | 0.56 (≈ 0.764 µM) | 87 (≈ 119 µM) |
| O=C1C=CC(O)(CC(=O)OC[C@H]2O[C@@H](OC(=O)CC3(O)C=CC(=O)C=C3)[C@H](OC(=O)Cc3ccccc3)[C@@H](O)[C@@H]2O)C=C1 [JACAGLABROSIDE B] | 0.56 (≈ 0.936 µM) | > 90 |
| O=C1C=CC(O)(CC(=O)OC[C@H]2O[C@@H](OC(=O)CC3(O)C=CC(=O)C=C3)[C@H](OC(=O)Cc3ccccc3)[C@@H](OC(=O)Cc3ccccc3)[C@@H]2O)C=C1 [JACAGLABROSIDE A] | 1.02 (≈ 1.42 µM) | 8.3 (≈ 11.6 µM) |
